In publication PMC4457826 (PLoS Pathogens, 2015):
No end group written: not given here.

Tests used:
[1] = molecular target: T1, USP7-CTD (Homo sapiens, UniProt Q93009); experiment: GST pull-down, USP7-CTD; format: binding; conditions: GST fusions 250 μg + USP7-CTD 250 μg, 50 mM Tris pH 8.0, 100 mM NaCl, 5 mM DTT, 5% glycerol, overnight 4°C; Coomassie stained gel; Fig 1A/1D; symbols not defined
T1 construct: USP7-CTD (535–1102); His tag (inferred from nickel-NTA purification; vector p15TV-L); made in house; host or cells: E. coli BL21(DE3)mgk
T1 sequence (Q93009 535-1102): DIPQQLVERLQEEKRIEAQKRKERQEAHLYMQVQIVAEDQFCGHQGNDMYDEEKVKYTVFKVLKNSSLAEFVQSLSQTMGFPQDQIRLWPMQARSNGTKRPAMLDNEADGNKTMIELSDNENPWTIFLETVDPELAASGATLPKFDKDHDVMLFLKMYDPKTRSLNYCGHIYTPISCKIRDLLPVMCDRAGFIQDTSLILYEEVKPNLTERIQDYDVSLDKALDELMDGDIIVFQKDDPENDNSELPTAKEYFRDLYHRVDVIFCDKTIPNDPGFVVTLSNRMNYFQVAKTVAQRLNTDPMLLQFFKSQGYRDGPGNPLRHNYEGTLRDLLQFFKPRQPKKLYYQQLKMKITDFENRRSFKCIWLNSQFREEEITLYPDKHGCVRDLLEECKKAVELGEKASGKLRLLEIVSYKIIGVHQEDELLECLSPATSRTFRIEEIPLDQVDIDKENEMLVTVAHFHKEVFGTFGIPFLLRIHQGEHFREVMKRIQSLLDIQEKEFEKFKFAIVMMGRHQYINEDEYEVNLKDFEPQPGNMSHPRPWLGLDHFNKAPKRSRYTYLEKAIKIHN
Procedure: (§1) Fragments representing USP7-CTD Ubl domains were prepared using ligation independent cloning with In-Fusion (Clontech) in p15TV-L. The boundaries of the Ubl domain constructs are Ubl12 (535–776), Ubl123 (535–889), Ubl345 (776–1102), Ubl45 (886–1102) and USP7-CTD (535–1102). Plasmids expressing USP7-NTD, USP7, and myc-USP7 WT (pCANmycUSP7) were described previously. USP7 mutants E759A, D762A, D764A and D762A/D764A in Ubl123 were synthesized (Genscript) and inserted into the pET15b plasmid. USP7 mutants E759A, D762A, D764A, D762A/D764A and D762R/D764R in USP7-CTD were prepared by ACGT Corporation. The D762R/D764R mutant was then sub-cloned into wild-type pCANmycUSP7 for co-IP assays. The mammalian ICP0 expression construct pCI-110 ICP0 was obtained from Roger Everett.
(§2) The ICP0, GMPS and UHRF1 WT and mutant peptides were cloned into pGEX-2TK and expressed in E. coli BL21(DE3). GST-ICP0 594–775 was obtained from Roger Everett. The GST-ICP0 or GST-GMPS or GST-UHRF1 or GST-ICP0 594–775 cell pellets from 500 ml of LB broth were re-suspended with PBS and lysed using sonication. The cleared lysates were applied to 500 μl of equilibrated glutathione-sepharose beads and incubated with rocking for 60 min at 4°C. Unbound proteins were removed by washing with PBS. Bound proteins were eluted with 50 mM Tris pH 8.0 and 100 mM NaCL containing 30 mM reduced glutathione. Equal amounts (250 μg) of the various USP7 proteins were incubated with 250 μg of the GST-ICP0 or GST-GMPS or GST-UHRF1 or GST-ICP0 594–775 peptides in 50 mM Tris pH 8.0, 100 mM NaCl, 5 mM DTT, 5% glycerol, 0.1 mM Benzamidine and 0.05 mM PMSF, applied to equilibrated glutathione-sepharose beads and incubated overnight with rocking at 4°C. After extensive washing, bound proteins were eluted with 50 mM Tris pH 8.0 and 100 mM NaCl containing 30 mM reduced glutathione.

[2] = tested on: FL-USP7; experiment: GST pull-down, USP7-FL; format: binding, human; conditions: GST fusions 250 μg + USP7 250 μg, 50 mM Tris pH 8.0, 100 mM NaCl, 5 mM DTT, 5% glycerol, overnight 4°C; Coomassie stained gel; Fig 1A/1C; symbols not defined
Procedure: The USP7 binding region is found within ICP0 residues 594–633 and mutagenesis studies have shown that K620 is essential for the interaction. In order to facilitate crystallization and structure determination, we set out to identify a shorter peptide that is capable of binding to USP7. To this end, a series of overlapping GST-ICP0 fusions (591–605, 595–609, 599–613, 603–617, 607–621, 611–625, 615–629, 619–633) were prepared (see Fig 1A for sequence details) and used in GST pull-down assays. […] Overall, our GST pull-down assays identified ICP0 residues between 619 and 629 as important mediators of USP7 binding in agreement with a previous study.
Next we determined which region of USP7-CTD interacted with the ICP0 615–629 peptide. FL-USP7, USP7-CTD as well as Ubl12, Ubl123, Ubl345 and Ubl45 (Fig 1B) were used as prey in GST pull-down assays using GST-ICP0 615–629. FL-USP7 and USP7-CTD were used as positive controls while GST alone and USP7-NTD were used as negative controls.
as §2

[3] = molecular target: T2, USP7 Ubl123 (Homo sapiens, UniProt Q93009); experiment: GST pull-down, Ubl123; format: binding; conditions: mutations within ICP0 615–629, Fig 3D
T2 construct: Ubl123 (535–889); His tag (inferred from nickel-NTA purification; vector p15TV-L); made in house; host or cells: E. coli BL21(DE3)mgk
T2 sequence (Q93009 535-889): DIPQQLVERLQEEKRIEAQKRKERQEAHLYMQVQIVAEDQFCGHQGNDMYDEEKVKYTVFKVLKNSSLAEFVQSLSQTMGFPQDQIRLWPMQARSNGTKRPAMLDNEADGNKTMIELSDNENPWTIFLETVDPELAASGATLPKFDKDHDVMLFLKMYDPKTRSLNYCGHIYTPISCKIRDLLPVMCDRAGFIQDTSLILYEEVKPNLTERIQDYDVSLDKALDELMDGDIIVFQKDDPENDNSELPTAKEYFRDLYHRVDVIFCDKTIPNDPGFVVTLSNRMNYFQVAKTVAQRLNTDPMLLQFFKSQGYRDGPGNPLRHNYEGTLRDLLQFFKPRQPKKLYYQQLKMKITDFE
Procedure: as §1, §2

[4] = tested on: myc-tagged D762R/D764R (MRGR) USP7; experiment: Co-immunoprecipitation with myc-tagged D762R/D764R (MRGR) USP7 from 293T cells; format: cell-based, human; conditions: anti-myc IP
Procedure: (§3) 293T cells were grown in Dulbecco’s modified Eagle’s medium (DMEM) (Gibco) with 10% fetal calf serum. 293T cells at 70% confluence in a 10-cm-diameter dish were transfected with 10 μg pCANmycUSP7 expressing WT USP7 or D762R/D764R (MRGR) USP7 or with pcDNA3.1 (negative control), in each case using 20 μl PolyJet (SignaGen Laboratories) transfection reagent. Cells were transferred to a 15-cm-diameter dish 24 h post-transfection and harvested 48 h post-transfection. For experiments on USP7-ICP0 interactions, 293T cells were co-transfected with 1 μg pCANmycUSP7 expressing WT or D762R/D764R (MRGR) USP7 and either 1 μg pCI-110 ICP0 or 1 μg pcDNA3.1. For controls lacking USP7, 1 μg pCI-110 ICP0 was co-transfected with 1 μg pcDNA3.1. In each case 4 μl PolyJet (SignaGen Laboratories) transfection reagent was used.
Protein samples were subjected to SDS-PAGE and transferred to nitrocellulose. Membranes were blocked in 5% skim milk in Tris-buffered saline with 1% Tween (TBS-T) and then incubated with antibodies against ICP0 (H1A027 from Virusys Corporation; 1:5000 dilution), myc (sc-40 from Santa Cruz Biotechnology; 1:5000 dilution), NP95/UHRF1 (A301-470A from Bethyl Laboratories; 1:1000 dilution), GMPS (rabbit serum raised against full-length GMPS [17]; 1:5000 dilution) and actin (MA5-15739 from Pierce; 1:20,000 dilution). After washing, blots were probed with goat anti-mouse or goat anti-rabbit peroxidase (Santa Cruz Biotechnology; 1:5000 dilution) and developed using chemiluminescence reagents (Santa Cruz biotechnology).
293T cells transfected as described above were washed in phosphate-buffered saline (PBS) and lysed on ice for 45 min in a 4x volume of RIPA buffer (50 mM Tris-HCl [pH 8], 150 mM NaCl, 0.1% sodium deoxycholate, 0.5% NP-40) with complete protease inhibitors (Sigma P8340), followed by centrifugation. 1 mg of each clarified lysate was incubated with 1 μg of anti-myc antibody for 1h, followed by incubation with 30 μl of A/G PLUS agarose resin (Santa Cruz Biotechnology) for 2 h at 4°C with end-over-end rotation. The resin was harvested by centrifugation, washed in RIPA buffer, and then boiled in SDS loading buffer. Immunoprecipitated proteins were separated by SDS-PAGE and analyzed by Western blotting, as described above.

[5] = tested on: myc-tagged WT USP7; experiment: Co-immunoprecipitation with myc-tagged WT USP7 from 293T cells; format: cell-based, human; conditions: anti-myc IP, endogenous protein, Western blot, Fig 5B
Procedure: as §3
Protein samples were subjected to SDS-PAGE and transferred to nitrocellulose. […]
293T cells transfected as described above were washed in phosphate-buffered saline (PBS) and lysed on ice for 45 min in a 4x volume of RIPA buffer (50 mM Tris-HCl [pH 8], 150 mM NaCl, 0.1% sodium deoxycholate, 0.5% NP-40) with complete protease inhibitors (Sigma P8340), followed by centrifugation. […] Immunoprecipitated proteins were separated by SDS-PAGE and analyzed by Western blotting, as described above.

AASGPRGPRKCARKT [ICP0 611–625, GST-ICP0 fusion of ICP0 residues 611–625]
Interaction with USP7-CTD (overlapping GST-ICP0 peptides) [1]: interacted with FL-USP7 and USP7-CTD but not to the same extent
Interaction with USP7-FL (overlapping GST-ICP0 peptides) [2]: interacted with FL-USP7 and USP7-CTD but not to the same extent

K620A/K624A (PRGPRACARATRHAE; also: GST fusion partner not in chain)
Binding of mutant GST-ICP0 peptides to Ubl123 [3]: lacked detectable binding

UHRF1: endogenous epigenetic regulator UHRF1 in 293T cells, an E3 ligase
binding relative to recovery with WT USP7 ([4]; D762R/D764R mutant, endogenous protein, multiple experiments, Fig 5B): 21% (± 6%)
recovery with D762R/D764R USP7 (co-IP), in words ([4]; Western blot, Fig 5): significantly decreased
recovery with WT USP7 (co-IP) [5]: efficiently recovered
